Experimental data: patent US9951028B2, “Agricultural chemicals” (REDAG CROP PROTECTION LTD, priority 2013, dated 2018)

Key:
Type in all cases: in vivo
[1] = test system: Abutilon theophrasti (China Jute); experiment: Herbicidal efficacy screen, corrected necrosis; conditions: for control over A. theophrasti: after 10 days, Table 5
[2] = test system: Echinochloa crus-galli; experiment: Herbicidal efficacy screen, corrected necrosis; conditions: Table 5; for control over E. crus galli: after 10 days
[3] = test system: Amaranthus retroflexus (redroot pigweed); experiment: Herbicidal efficacy screen, corrected necrosis
[4] = test system: Capsella bursa-pastoris, (shepherd's-purse); experiment: Herbicidal efficacy screen, corrected necrosis
[5] = test system: A. retroflexus, A. theophrasti, C. bursa pastoris; experiment: Herbicidal efficacy screen, text summary of table 2 over all target weed species; conditions: certain weed species, after 1 day
Excerpt: (§1) Certain compounds of the invention were screened for herbicidal efficacy against target plants: Amaranthus retroflexus (redroot pigweed), Abutilon theophrasti (China Jute): Capsella bursa-pastoris, (shepherd's-purse) Echinochloa crus-galli, Hordeum vulgare (Barley),

[6] = test system: Hordeum vulgare (Barley); experiment: Herbicidal efficacy screen, corrected necrosis; conditions: Table 5
[7] = test system: A. theophrasti, E. crus galli, H. vulgare; experiment: Herbicidal efficacy screen, summary of tables 3-5 over all target weed species; conditions: table 3
Excerpt: as §1

[8] = 6.25 g/ha, day 1 post application
[9] = 6.25 g/ha, day 7 post application
[10] = 12.5 g/ha, day 1 post application
[11] = 12.5 g/ha, day 7 post application
[12] = 25 g/ha, day 1 post application
[13] = 25 g/ha, day 7 post application
[14] = 50 g/ha, day 1 post application
[15] = 50 g/ha, day 7 post application
[16] = 100 g/ha, day 1 post application
[17] = 100 g/ha, day 7 post application

CSc1c(C(F)(F)F)ccc(C(=O)Nc2nonc2C)c1C [Compound 48, 2-Methyl-N-(4-methyl-1,2,5-oxadiazol-3-yl)-3-methylsulfanyl-4-(trifluoromethyl)benzamide, reference compound]
control over A. theophrasti [1]: good control
control over E. crus galli [2]: good control

CC(C)C(C)S(=O)(=O)NC(=O)c1cc(-n2c(=O)cc(C(F)(F)F)n(C)c2=O)c(F)cc1Cl (stereo not shown) [Compound 26, 2-Chloro-N-(1,2-dimethylpropylsulfonyl)-4-fluoro-5-[3-methyl-2,6-dioxo-4-(trifluoromethyl)pyrimidin-1-yl]benzamide]
Average of corrected necrosis [1, 8]: C (C represents a percentage increase in necrosis relative to the control of 0.1-50)
Average of corrected necrosis [1, 9]: A (A represents a percentage inhibition of 80-100)
Average of corrected necrosis [1, 10]: 0%
Average of corrected necrosis [1, 11]: A (A represents a percentage inhibition of 80-100)
Average of corrected necrosis [1, 12]: C (C represents a percentage increase in necrosis relative to the control of 0.1-50)
Average of corrected necrosis [1, 13]: A (A represents a percentage inhibition of 80-100)
Average of corrected necrosis [1, 14]: C (C represents a percentage increase in necrosis relative to the control of 0.1-50)
Average of corrected necrosis [1, 15]: A (A represents a percentage inhibition of 80-100)
Average of corrected necrosis [1, 16]: B (B represents a percentage inhibition of 50-80)
Average of corrected necrosis [1, 17]: A (A represents a percentage inhibition of 80-100)
Average of corrected necrosis [3, 8]: C (C represents a percentage increase in necrosis relative to the control of 0.1-50)
Average of corrected necrosis [3, 9]: A (A represents a percentage inhibition of 80-100)
Average of corrected necrosis [3, 10]: C (C represents a percentage increase in necrosis relative to the control of 0.1-50)
Average of corrected necrosis [3, 11]: A (A represents a percentage inhibition of 80-100)
Average of corrected necrosis [3, 12]: C (C represents a percentage increase in necrosis relative to the control of 0.1-50)
Average of corrected necrosis [3, 13]: A (A represents a percentage inhibition of 80-100)
Average of corrected necrosis [3, 14]: C (C represents a percentage increase in necrosis relative to the control of 0.1-50)
Average of corrected necrosis [3, 15]: A (A represents a percentage inhibition of 80-100)
Average of corrected necrosis [3, 16]: C (C represents a percentage increase in necrosis relative to the control of 0.1-50)
Average of corrected necrosis [3, 17]: A (A represents a percentage inhibition of 80-100)
Average of corrected necrosis [4, 8]: C (C represents a percentage increase in necrosis relative to the control of 0.1-50)
Average of corrected necrosis [4, 9]: A (A represents a percentage inhibition of 80-100)
Average of corrected necrosis [4, 10]: C (C represents a percentage increase in necrosis relative to the control of 0.1-50)
Average of corrected necrosis [4, 11]: 0%
Average of corrected necrosis [4, 12]: C (C represents a percentage increase in necrosis relative to the control of 0.1-50)
Average of corrected necrosis [4, 13]: A (A represents a percentage inhibition of 80-100)
Average of corrected necrosis [4, 14]: C (C represents a percentage increase in necrosis relative to the control of 0.1-50)
Average of corrected necrosis [4, 15]: A (A represents a percentage inhibition of 80-100)
Average of corrected necrosis [4, 16]: C (C represents a percentage increase in necrosis relative to the control of 0.1-50)
Average of corrected necrosis [4, 17]: A (A represents a percentage inhibition of 80-100)
control compared with the reference compound (saflufenacil) [5]: better control

CSc1c(C(F)(F)F)ccc(CNc2nonc2C)c1C [Compound 47, 4-Methyl-N-[[2-methyl-3-methylsulfanyl-4-(trifluoromethyl)phenyl]methyl]-1,2,5-oxadiazol-3-amine]
control over A. theophrasti [1]: good control
control over E. crus galli [2]: good control
control of E. crus galli relative to the reference compound 48 ([2]; at low dosages): improved control
control over H. vulgare [6]: good control
control of H. vulgare relative to the reference compound 48 ([6]; at low dosages): improved control

C#CC(c1ccc(F)cc1)C(CC(=O)OCC)c1c(F)cccc1F (stereo not shown) [Compound 37, Ethyl 3-(2,6-difluorophenyl)-4-(4-fluorophenyl)hex-5-ynoate]
control compared with prior art compounds 27 and 27a [7]: significantly better control
control over all three weed species [7]: excellent control
